The results in this text go back to patent US8198432B2, “Porphyrin-based compounds for tumor imaging and photodynamic therapy” (Health Research, Inc., priority 2005, dated 2012).

One data set has as its system RIF cells. The experiment in a line: preliminary screening of aromatic alkyl ethers for in vitro and in vivo efficacy (RIF cells). The format is cell-based. The source says: There are several methods for labeling the compounds with iodine isotopes. Conversion of the cold iodo- to radioactive iodo- is possible, but the specific activity of the resulting product is low. […] Therefore, we prepared a series of aromatic alkyl ethers and evaluated them for in vitro (RIF cells) and in vivo efficacy (RIF cells).

Data set [1] deals with RIF tumors. The experiment in a line: in vivo photosensitizing efficacy, tumor re-growth after laser light. The conditions noted are these: C3H mice bearing RIF tumors, light at 665 nm for 30 minutes. The protocol: The in vivo efficacy was determined in C3H mice bearing RIF tumors (5 mice/group). The tumors were exposed to light at 665 nm (in vivo absorption) with a laser light ([…]) for 30 minutes. The tumor-regrowth was measured everyday (for details see ‘Methods’ part of the project). […] Further studies to optimize the treatment conditions at variable fluence and fluence-rates and time intervals are currently in progress.

A further data set relates to RIF tumor cells. Kind of data set: in vitro photosensitizing efficacy (PDT, MTT assay) in RIF tumor cells. The format is cell-based. Also noted: in vitro photosensitizing efficacy compared with HPPH: dose or concentration left out as unconfirmed. Here is the method: For evaluating in vitro photosensitizing efficacy of 3-iodobenxyloxyethyl-pyropheophorbide-a 2, RIF tumor cells were grown in alpha-DMEM with 10% fetal calf serum, penicillin and streptomycin. Cells were maintained in 5% CO2, 95% air and 100% humidity. For determining the PDT efficacy, these cells were plated in 96-well plates and a density of 1×10^4 cells well in complete media. After overnight incubation to allow the cells to attach, the HPPH and the related cold-iodo derivative 2 were individually added at variable concentrations. After 3 hr incubation in the dark at 37° C., the cells were washed once with PBS, and irradiated with light. After light treatment, the cells were washed once and placed in complete media and incubated for 48 hrs. Then 10 μl of a 4-mg/ml solution of MTT was added to each well. After incubating for 4 hr at 37° C. the MTT+ media were removed and 100 μl DMSO was added to solubilize the formazin crystals. The 96-well plate was read on a microtiter plate reader at an absorbance of 560 nm. The optimal cell kill was obtained at a concentration of 1.00 µM. The results were plotted as percent survival of the corresponding dark (drug no light) control for each compound tested. (FIG. 4) Each data point represents the mean from 3 separate experiments, and the error bars are the standard deviation. Each experiment used 5 replicate wells.

Data set [2] deals with RIF tumors. The experiment in a line: in vivo tumor imaging with small animal PET scanner. The conditions noted are these: C3H mice bearing RIF tumors. The protocol: In initial experiments, the 1-124 labeled photosensitizer 2 at variable radioactive doses (35, 50 and 100 µCi) was injected in three sets of C3H mice (3 mice/group, bearing RIF tumors at the shoulder) respectively and the images were taken with a small animal PET scanner at 24, 48 and 72 h time intervals (FIG. 6 images A, B, and C). In all radioactive doses, the best images were obtained at 48 h post injection of the drug.

Data set [3] in a line: biodistribution of the I-124 PET agent in selected organs. The format is in vivo, mice. Also on record: unit not given here. The conditions noted are these: 48 h post injection, per gram of organ. The protocol:
After PET imaging at 48 h post-injection, a group of mice (3 mice/group) were sacrificed and the biodistribution of the I-124 PET agent in selected organs/gram were determined.

Where “and” joins values, the source holds several entries; their conditions need not be identical. Equal entries are not always repeated.

With `CCC1=C(C)c2cc3[nH]c(cc4nc(c5c6[nH]c(cc1n2)c(C)c6C(=O)C5)[C@@H](CCC(=O)OC)[C@@H]4C)c(C)c3C(C)OCc1cccc(I)c1` (stereo partly drawn) [Compound 2], in the data set on RIF cells, the “efficacy in preliminary screening compared with HPPH” value is reported as “as effective as HPPH”. Besides, the “time at which tumor re-growth was observed” value came to 10 days post-injection with RIF tumors [1] (dose 0.25 […]mole/kg) and 15 days post-injection in the data set on RIF tumors [1] (dose 0.50 […]mole/kg). Moreover, the “in vivo efficacy (PDT)” value with RIF tumors [1] (dose of 1.0 and 1.5 µmol/kg, 24 hours post injection) is listed as “quite effective”. In the data set on RIF tumor cells (3 hr incubation in the dark, light, MTT after 48 hrs), the “concentration at which the optimal cell kill was obtained” value is 1.00 µM. In addition, the “in vitro photosensitizing efficacy compared with HPPH” value in the data set on RIF tumor cells (FIG. 4) is on record as “slightly more effective”.
As for `CCC1=C(C)c2cc3[nH]c(cc4nc(c5c6[nH]c(cc1n2)c(C)c6C(=O)C5)[C@@H](CCC(=O)OC)[C@@H]4C)c(C)c3C(C)OCc1cccc([124I])c1` (stereo partly drawn) [I-124 labeled photosensitizer 4], the “presence of the compound in organs other than tumor on PET images” value in the data set on RIF tumors [2] is given as “especially in liver was evident”. Further, in data set [3] (AVG of 3 mice), the “biodistribution, Blood” value worked out at 1.12; the “biodistribution, Gut” value was 2.47; the “biodistribution, Heart” value is reported as 0.99; the “biodistribution, Kidney” value came to 1.10. Also, in data set [3] (AVG of 3 mice), the “biodistribution, Liver” value is recorded as 3.31; the “biodistribution, Lungs” value came to 1.09; the “biodistribution, Muscle” value came to 0.35; the “biodistribution, Spleen” value is reported as 2.11. Moreover, in data set [3] (AVG of 3 mice), the “biodistribution, Stomach” value is recorded as 1.02 and the “biodistribution, Tumor” value came to 2.22. Also, in data set [3] (individual mouse (Mouse 1-3)), the “biodistribution, Blood” value is 1.47 and 1.33 and 0.57; the “biodistribution, Gut” value is 3.6 and 2.22 and 1.69; the “biodistribution, Heart” value is 0.79 and 1.21 and 0.98; the “biodistribution, Kidney” value was 1.09 and 1.21 and 0.99. For the same compound, in data set [3] (individual mouse (Mouse 1-3)), the “biodistribution, Liver” value is 3.46 and 3.22 and 3.26; the “biodistribution, Lungs” value is 0.99 and 1.29 and 1.00; the “biodistribution, Muscle” value is 0.18 and 0.49 and 0.37; the “biodistribution, Spleen” value was 2.04 and 2.23 and 2.05. In addition, in data set [3] (individual mouse (Mouse 1-3)), the “biodistribution, Stomach” value was 1.3 and 0.66 and 1.10; the “biodistribution, Tumor” value was 2.4 and 2.15 and 2.10.
